Measured values as given in the supplement of paper PMC8967900.

Legend:
Test in all cases: selective drug sensitivity score (sDSS, relative to normal bone marrow) (sDSS (score)); higher = more potent and effective on the cell line relative to normal bone marrow cells
Conditions in all cases: 72 h
[1] = test system: NALM-16
[2] = test system: KASUMI-9
[3] = test system: CCRF-CEM
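Note: ALL cell lines in 384-well plates, five doses spanning 10,000-fold, each plate scaled between vehicle and 100 µmol/L benzalkonium chloride controls, sDSS an adapted area-under-curve metric.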

Compound | selective drug sensitivity score [1] | selective drug sensitivity score [2] | selective drug sensitivity score [3]
CC(C)NC[C@@H](C(=O)N1CCN(c2ncnc3c2[C@H](C)C[C@H]3O)CC1)c1ccc(Cl)cc1 [Ipatasertib] (top concentration 10000 nM) | 1.7 | -0.2 | 10.7
CCC(C)n1ncn(-c2ccc(N3CCN(c4ccc(OCC5COC(Cn6cncn6)(c6ccc(Cl)cc6Cl)O5)cc4)CC3)cc2)c1=O (stereo not given) [Itraconazole] (top concentration 5000 nM) | -4.32 | -4.12 | -1.22
Cc1sc2c(c1C)C(c1ccc(Cl)cc1)=N[C@@H](CC(=O)OC(C)(C)C)c1nnc(C)n1-2 [JQ1] (top concentration 10000 nM) | 2.02 | 11.8 | 1.32
CCNC(=O)c1noc(-c2cc(C(C)C)c(O)cc2O)c1-c1ccc(CN2CCOCC2)cc1 [Luminespib] (top concentration 1000 nM) | -2.9 | -3 | -0.5
O=C(c1cccc(Cl)c1F)N1CCN(Cc2cccc(Nc3nccs3)n2)CC1 [MK-8745] (top concentration 10000 nM) | 12.4 | 13.2 | 12.1
Cc1ccc(NC(=O)c2ccc(CN3CCN(C)CC3)cc2)cc1Nc1nc(-c2cccnc2)cs1 [Masitinib] (top concentration 10000 nM) | -4.38 | 1.22 | 2.42
CCN(CC)CCCC(C)Nc1c2ccc(Cl)cc2nc2ccc(OC)cc12 (stereo not given) [Mepacrine] (top concentration 50000 nM) | -7.9 | -3.6 | -5
COc1ccc(-c2ccc3ncc4c(c3c2)n(-c2ccc(N3CCNCC3)c(C(F)(F)F)c2)c(=O)n4C)cn1 [NVP-BGT226] (top concentration 1000 nM) | -0.18 | 8.42 | 10.1
COc1nc(N)nc2c1ncn2[C@@H]1O[C@H](CO)[C@@H](O)[C@@H]1O [Nelarabine] (top concentration 10000 nM) | -9.52 | 1.98 | 4.18
Cc1cn(-c2cc(NC(=O)c3ccc(C)c(Nc4nccc(-c5cccnc5)n4)c3)cc(C(F)(F)F)c2)cn1 [Nilotinib] (top concentration 10000 nM) | 0 | 4.6 | 2.1
NC(=O)c1cccc2cn(-c3ccc(C4CCCNC4)cc3)nc12 (stereo not given) [Niraparib] (top concentration 10000 nM) | -2.82 | 5.78 | 4.68
COc1ccc(C[C@H](NC(=O)[C@H](C)NC(=O)CN2CCOCC2)C(=O)N[C@@H](Cc2ccccc2)C(=O)[C@@]2(C)CO2)cc1 [ONX-0914] (top concentration 10000 nM) | -2 | -4.1 | 3.1
CC(=O)c1cnc2ccc(-c3cc(Cl)c(O)c(Cl)c3)nc2c1N[C@H]1CC[C@H](CN(C)C)CC1 [OTS167] (top concentration 1000 nM) | -4.52 | 3.58 | 2.48
COC(=O)C[C@](O)(CCCC(C)(C)O)C(=O)O[C@@H]1C(OC)=C[C@]23CCCN2CCc2cc4c(cc2[C@H]13)OCO4 [Omacetaxine] (top concentration 10000 nM) | -8.18 | 1.12 | 3.02
C1=N/C2=N/c3ccc(OCCN4CCCC4)c(c3)COC/C=C/COCc3cccc(c3)C(=C1)N2 [Pacritinib] (top concentration 10000 nM) | -8.2 | -0.9 | -6.1
Cc1[nH]c2ccccc2c1CCNCc1ccc(/C=C/C(=O)NO)cc1 [Panobinostat] (top concentration 1000 nM) | 2.94 | 11.7 | 5.34
Cc1ccc(Nc2nccc(N(C)c3ccc4c(C)n(C)nc4c3)n2)cc1S(N)(=O)=O [Pazopanib] (top concentration 10000 nM) | -1.26 | 3.64 | 0.04
Nc1nc2[nH]cc(CCc3ccc(C(=O)N[C@@H](CCC(=O)O)C(=O)O)cc3)c2c(=O)[nH]1 [Pemetrexed] (top concentration 10000 nM) | 7.38 | 18.6 | 23.6
Cc1ccc(C(=O)Nc2ccc(CN3CCN(C)CC3)c(C(F)(F)F)c2)cc1C#Cc1cnc2cccnn12 [Ponatinib] (top concentration 1000 nM) | -0.08 | 5.42 | 1.82
C[C@]12C=CC(=O)C=C1CC[C@@H]1[C@@H]2[C@@H](O)C[C@@]2(C)[C@H]1CC[C@]2(O)C(=O)CO [Prednisolone] (top concentration 10000 nM) | -3 | 2 | 6.4

Compound | selective drug sensitivity score [1] | selective drug sensitivity score [2] | selective drug sensitivity score [3]
CC(C)(C)c1cc(NC(=O)Nc2ccc(-c3cn4c(n3)sc3cc(OCCN5CCOCC5)ccc34)cc2)no1 [Quizartinib] (top concentration 1000 nM) | -1.32 | -0.02 | 0.98
Nc1cc(F)ccc1NC(=O)/C=C/c1cnn(C/C=C/c2ccccc2)c1 [RGFP966] (top concentration 10000 nM) | 6.24 | 13.5 | 13.9
CNC(=O)c1cc(Oc2ccc(NC(=O)Nc3ccc(Cl)c(C(F)(F)F)c3)c(F)c2)ccn1 [Regorafenib] (top concentration 10000 nM) | 1.54 | 2.04 | 3.74
CN(C)Cc1ccc(S(=O)(=O)n2ccc(/C=C/C(=O)NO)c2)cc1 [Resminostat] (top concentration 10000 nM) | 0.24 | 10.2 | 3.74
COc1cc(OC)c(/C=C/S(=O)(=O)Cc2ccc(OC)c(NCC(=O)O)c2)c(OC)c1 [Rigosertib] (top concentration 10000 nM) | 12.8 | 18.3 | 14.4
COc1ccc(CCc2nc3cc(-c4c(C)noc4C)ccc3n2C[C@H](C)N2CCOCC2)cc1Cl [SGC-CBP30] (top concentration 25000 nM) | 0.48 | 5.58 | 4.28
CCS(=O)(=O)c1cccc(-c2cc(C(=O)NC3CCN(C)CC3)c(C)c3[nH]c4ncc(C)cc4c23)c1 [TAK-901] (top concentration 1000 nM) | 0.16 | 10.8 | 11.2
Nc1nc(NC2CC2)cc(-c2cccc(Cl)c2Cl)n1 [TH588] (top concentration 25000 nM) | 5.32 | 7.92 | 7.52
CC(=O)Nc1ccc(C(=O)Nc2ccccc2N)cc1 [Tacedinaline] (top concentration 1000 nM) | -0.02 | 4.38 | 2.08
Cn1ncnc1[C@H]1c2n[nH]c(=O)c3cc(F)cc(c23)N[C@@H]1c1ccc(F)cc1 [Talazoparib] (top concentration 1000 nM) | -2.82 | 8.98 | 5.98
COc1cccc2c1c(O)c(C(=O)N(C)c1ccc(C(F)(F)F)cc1)c(=O)n2C [Tasquinimod] (top concentration 10000 nM) | -0.42 | -0.42 | -0.42
Nc1nc2[nH]cnc2c(=S)[nH]1 [Thioguanine] (top concentration 10000 nM) | 7.74 | 11.2 | 15.3
CC#CC(=O)N1CC[C@@H](n2c(=O)n(-c3ccc(Oc4ccccc4)cc3)c3c(N)ncnc32)C1 [Tirabrutinib] (top concentration 1000 nM) | 0 | 0 | 0
CC(C)C[C@@H](C(=O)N[C@H](C(=O)OC1CCCC1)c1ccccc1)[C@H](O)C(=O)NO [Tosedostat] (top concentration 10000 nM) | 3.06 | 2.56 | 4.36
CS(=O)(=O)c1ccc(-c2cnc(N)c(C(=O)Nc3ccccc3)n2)cc1 [VE-821] (top concentration 10000 nM) | -0.66 | 0.84 | -0.66
CNC(=O)c1ccccc1Nc1cc(Nc2ccc(N3CCOCC3)cc2OC)ncc1C(F)(F)F [VS-4718] (top concentration 10000 nM) | 0 | 2.1 | 2
Cc1cccc(-c2[nH]c(CNc3ccccc3F)nc2-c2ccc3ncnn3c2)n1 [Vactosertib (TEW-7197)] (top concentration 2500 nM) | -0.4 | 1.4 | -0.5
O=C(/C=C\n1cnc(-c2cc(C(F)(F)F)cc(C(F)(F)F)c2)n1)NNc1ccccn1 [Verdinexor] (top concentration 1000 nM) | -0.36 | 3.74 | 5.24
CC[C@@H]1C(=O)N(C)c2cnc(Nc3ccc(C(=O)N[C@H]4CC[C@H](N5CCN(CC6CC6)CC5)CC4)cc3OC)nc2N1C(C)C [Volasertib] (top concentration 1000 nM) | 11.3 | 18.5 | 13.8
O=C(CCCCCCC(=O)Nc1ccccc1)NO [Vorinostat] (top concentration 10000 nM) | 1.5 | 11.6 | 5.9
